Test results from article PMC10924921, “Mi-2β promotes immune evasion in melanoma by activating EZH2 methylation” (Nature Communications, 2024).

What was measured:
[1] = tested on: H3K27me3 and H3K27ac in melanoma cells (B16F10, PM); test: Western blot of epigenetic modifications of H3; format: cell-based, mouse
Protocol: The lysis buffer (50 mM Tris pH 7.4, 1% Triton X-100, 0.5 mM EDTA, 0.5 mM EGTA, 150 mM NaCl, 10% glycerol, 1 mM phenylmethylsulfonyl fluoride and complete protease inhibitor cocktail (Roche)) were used to prepare the whole-cell lysates, which was followed by homogenization and centrifuge (14,000 rpm for 15 min at 4 °C). Pierce BCA Protein Assay Kit (Thermo Fisher Scientific) was used to detect protein concentration. After SDS-PAGE separation and PVDF membrane (BIO-RAD) transfer of the proteins, the specific primary was probed at 4 °C for overnight, before incubated with corresponding horseradish peroxidase (HRP)-conjugated 2nd antibodies. Pierce ECL Western Blotting Substrate (Thermo Fisher Scientific) was used for protein detection. Antibodies were: anti-Mi-2β(1:1000), anti-EZH2 (ab70469, Abcam) (1:1000), anti-β-actin-peroxidase antibody (AC15) (1:5000) and anti-rabbit secondary antibody (A-4914) (1:10,000). Antibody information have shown in Supplementary data 3.
Supplementary Figure 10. […] A mouse survival curve is shown, with log-rank test for mouse survival P value. b,c The epigenetic modifications of H3 (H3K27ac, H3K27me1 and H3K27me3) were measured in B16F10 cells stimulated with GSK126 or Z36-MP5 as indicated (n = 3, independent experiments). d The amount of secreted Cxcl9 and Cxcl10 was measured by ELISA in […]

B16F10 cells = test: CCK-8 cell proliferation; format: cell-based, mouse; details: CCK-8, B16F10 cells
Protocol: To test whether Z36-MP5 affects cell proliferation, cells were seeded into 96-well plates at a density of 1 × 10^3 cells/100 μl per well. CCK-8 was used to detect changes in proliferation ability after 3 days of treatment with Z36-MP5 (25 μM). To test whether Mi-2β expression in T cells or treatment of T cells with Z36-MP5 affects the ability of T cells to kill tumor cells, Mi-2β in Pmel-1 T cells was manipulated or Pmel-1 cells were exposed to Z36-MP5 (25 μM) for 24 hrs. The number of cells was quantified. One thousand Pmel-1 T cells were then co cultured with 1000 tumor cells for 24 hrs, and the number of tumor cells was counted.
(§1) Supplementary Figure 8. In vitro assay for Mi-2β inhibitors. a The body weight changes of C57BL/6J mice treated with Z36-MP5 (30 mg/kg/day) for 2 weeks. Data are mean ± SEM (n=5). b H&E staining of tissues in C57BL/6J mice treated with or without Z36 -MP5 (30 mg/kg/day) for 2 weeks. […]
(§2) The growth of tumor grafts was measured. n = 5. g Mice bearing B16F10 cell s were treated with MS177 (100 mg/kg, 5 days) and then Z36 -MP5 (30 mg/kg/day) or vehicles, accompanied with anti -PD-1 antibody […]

[2] = Tolerability: mouse weight and organ histology; format: in vivo; details: 30 mg/kg/day for 2 weeks
Protocol: Z36-MP5 was chosen for further validation and experimental therapeutics in vivo. […] To investigate its cellular inhibitory activity, B16F10 cells were treated with Z36-MP5 at concentrations ranging from 5 to 100 µM, and the activation of Mi-2β target genes measured by RT-qPCR. […] In addition, the pharmacokinetic properties of Z36-MP5 in Sprague-Dawley rats with administration of intraperitoneal injection dose of 1.0 mg/kg. […] To exclude any effects on the host cells, we implanted Mi-2β-null melanoma cells into C57BL6 mice and then treated the mice with Z36-MP5 accompanied by anti-PD-1 therapy.
as §1, §2

Compound: Cn1c(=O)[nH]c2ccc(-c3cccc(C(=O)NC4CCn5ccnc5C4)c3)cc21 (stereo not shown) [Z36-MP5]
- H3K27ac level ([1]; PM cells, compared to GSK126 treatment): only slightly increased
- level of H3K27me3 ([1]; melanoma cells): repressed
- proliferation of tumor cells (B16F10 cells): not significantly inhibited
- tolerability (mouse weight, organ tissue histological staining) [2]: tolerated without significant toxicity
